Reference: patent publication US9452119B2, “Nitrone compounds and their use in personal care” (Dow Global Technologies LLC, priority 2011, dated 2016)

Tests used:
[1] = Oxygen Radical Absorbance Capacity (ORAC) antioxidant potential; design: unit not given here; conditions: calculated from ORAC values (AUC minus blank); Trolox as internal control
Protocol: Antioxidant potential is evaluated using the Oxygen Radical Absorbance Capacity (ORAC) protocol. ORAC is a chemical in-vitro method based on the hydrogen atom transfer (HAT) mechanism. ORAC measures antioxidant inhibition of peroxyl radical induced oxidations and thus reflects classical radical chain breaking antioxidant activity by H atom transfer. In this assay, the peroxyl radical reacts with a fluorescent probe to form a non-fluorescent product. This is quantitated using a fluorescence measurement. Antioxidant capacity is determined by decreased rate and amount of product formed over time. This assay depends upon the free radical damage to the fluorescent probe resulting in the change in its fluorescence intensity. The change of fluorescence intensity is an indicator of the degree of free radical damage. In the presence of an antioxidant, the inhibition of free radical damage is reflected in higher fluorescence intensity and can be measured as antioxidant capacity against the free radicals. The uniqueness of ORAC assay is that the reaction is driven to completion. This allows calculation of the area under the curve (AUC) and gives an absolute quantitation of antioxidancy as opposed to relative measurements in many other assays.
As noted, the longer it takes to observe a decrease in fluorescence, the higher the antioxidant (AO) potential. From the AUC for a given antioxidant, the AUC for blank is subtracted to give its ORAC value. The concentration of AO needed to give the same AUC values as Trolox is calculated and used to represent the Trolox equivalent AO Capacity (TEAC). Trolox is ((±)-6-Hydroxy-2,5,7,8-tetramethylchromane-2-carboxylic acid, CAS #53188-07-1), and is used as an internal control.
The ORAC test is conducted in the compounds of Examples 1-5 (inventive compounds) as well as to Vitamin C, Vitamin E, and the following comparative compounds:
The TEAC values calculated from the ORAC values are listed the Table 2.

collagen = test: UVA-induced collagen degradation, SDS-PAGE / densitometry of collagen γ-bands; type: biochemical; conditions: antioxidant at 238 μM, UVA irradiation, FIG. 3
Protocol: FIG. 3 is a densitometry plot of collagen γ-bands on SDS-PAGE of samples containing antioxidant at concentration of 238 μM.
In addition to the oxidative stress due to radical and ROS generation, oxidative damage to collagen can also be induced by UVA irradiation. Similar to the radical-induced collagen degradation, the effect of UVA in collagen degradation is mitigated by the presence of nitrones.
Similar to the prevention of radical-induced degradation, better efficacy in the inhibitory effect of preventing UVA-induced degradation is also observed for VAN-IPHA (FIG. 3). In this analysis, the effects of VAN-IPHA and pHBz-IPHA are compared to a highly efficacious antioxidant, Resveratrol. […] The stability of nitrones of the invention provide an advantageous alternative solution for antioxidant needs in cosmetic applications, such as anti-aging.

Type I collagen = test: AAPH radical induced collagen degradation, SDS-PAGE of remaining γ-chain; type: biochemical; conditions: incubated with AAPH at 50° C. for 90 mins; antioxidants at same concentration; FIG. 1
Protocol: Type I collagen, typically found in abundance in skin, is dissolved in 0.04 M acetic acid, pH 4.3, prior to different treatments. For radical induced collagen degradation, aqueous radical initiator 2,2′-azobis-2-methyl-propanimidamide dihydrochloride (AAPH) is used. The collagen samples are incubated with AAPH in the presence of VAN-IPHA (Example 3), pHBz-IPHA (Example 6), and vitamin E (comparative) of the same concentration to determine the efficacy of these antioxidants in preventing collagen degradation. After incubation at 50° C. for 90 mins, the collagen samples are analyzed by SDS-PAGE to determine the degree of degradation by the remaining amount of γ-chain, which is a covalently cross-linked trimer for collagen.

| melting point [°C] | Compound | TEAC (Trolox equivalent AO Capacity) [1] | inhibitory effect of preventing UVA-induced collagen degradation (collagen) | extent of collagen degradation (remaining γ-chain) (Type I collagen) |
| --- | --- | --- | --- | --- |
| 178 to 180 | COc1cc(/C=[N+](\[O-])C(C)C)ccc1O [VAN-IPHA, (Z)-N-(4-hydroxy-3-methoxybenzylidene)propan-2-amine oxide] | 5.41 | better efficacy than Resveratrol | significantly less |
| 217 to 218 | CC(C)/[N+]([O-])=C/c1ccc(O)cc1 [pHBz-IPHA, (Z)-N-(4-hydroxybenzylidene)propan-2-amine oxide] | 8.67 |  |  |
|  | Cc1cc(/C=[N+](\[O-])C(C)C)cc(C)c1O [DMHBz-IPHA, (Z)-N-(4-hydroxy-3,5-dimethylbenzylidene)propan-2-amine oxide] | 1.56 |  |  |
|  | CC(C)(C)/[N+]([O-])=C/c1ccccc1 [PBN, reference compound] | 0.04 |  |  |
|  | COc1cc(/C=[N+](\[O-])C(C)(C)C)ccc1O [VAN-tBHA, (Z)-N-(4-hydroxy-3-methoxybenzylidene)-2-methylpropan-2-amine oxide] | 4.42 |  |  |
|  | CC(C)/[N+]([O-])=C/c1ccccc1O [SAL-IPHA, (Z)-N-(2-hydroxybenzylidene)propan-2-amine oxide] | 3.02 |  |  |
|  | CCCC/C=[N+](\[O-])C(C)C [VAL-IPHA, reference compound] | 0.18 |  |  |
|  | O=C1O[C@H]([C@@H](O)CO)C(O)=C1O [Vitamin C, reference compound] | 0.76 |  |  |
|  | Cc1cc(C(C)(C)C)c(O)c(C(C)(C)C)c1 [BHT, reference compound] | 0.11-0.21 |  |  |
|  | Vitamin E [reference compound] | 0.13 |  |  |
